From patent US20160175351A1, “CANCER TREATMENT” (DUKE UNIVERSITY, priority 2013, published 2016)
Where a SMILES comes first, the peptide text is derived from it. The star is where a group is joined. Cbz = O=C(OCc1ccccc1)*; CHN2 = [N-]=[N+]=C*; tBu = CC(C)(C)*

Key:
[1] = test system: Ctr1-/- MEFs expressing wild type Ctr1; assay: Cisplatin uptake/accumulation by ICP-MS in MEFs expressing wild type Ctr1 (FIG. 6); assay type: cell-based, mouse; conditions: inhibitor 10 μM over night, then cisplatin 200 μM for 2 h
From the text: (§1) FIG. 6 is a graph showing platinum accumulation in Ctr1 knockout MEFs (Ctr1^−/−), wild-type MEFs (Ctr1), or MEFs expressing Ctr1 with a Pro25Ala mutation (Ctr1^P25A). Each of the above were either untreated (1, 2 and 3), or treated with the Cathepsin L inhibitor Z-FY(tBu)-DMK (4, 5 and 6).
(§2) Mouse embryonic fibroblasts from Ctr1^−/− embryos were stably transfected with the human Ctr1 and the human Ctr1 containing the proline to alanine mutation at position 25 (Ctr1^P25A). […] Cells were rinsed in three times with ice cold PBS before the cells were scraped and divided into two tubes; one for measuring metal concentration and one for protein quantification. […] Platinum concentrations in the digested samples were measured by inductively coupled plasma mass spectrometry ([…]) and normalized to the total amount of protein in the sample.
(§3) Mouse Ctr1^−/− MEFs were transfected with vector alone (Ctr1^−/−), the expression vector expressing wild type Ctr1 (Ctr1) or the Ctr1^P25A mutant protein (Ctr1^P25A). Cells were incubated with cisplatin (200 μM for 2 h), or cisplatin plus the Cathepsin L inhibitor Z-FY(t-Bu)-DMK (10 μM) as indicated, harvested and cisplatin accumulation measured by ICP-MS and plotted on the Y-axis.

[2] = test system: Ctr1-/- MEFs expressing Ctr1^P25A; assay: Cisplatin uptake/accumulation by ICP-MS in MEFs expressing Ctr1 P25A (FIG. 6); assay type: cell-based, mouse; conditions: inhibitor 10 μM over night, then cisplatin 200 μM for 2 h
From the text: as §1, §2, §3

[3] = test system: human Ctr1 containing the proline to alanine mutation at position 25 (Ctr1^P25A); assay: Ctr1 ectodomain cleavage, anti-Ctr1 immunoblot of Ctr1-/- MEFs stably transfected with human Ctr1 P25A (FIG. 5); assay type: cell-based; conditions: MEFs expressing Ctr1^P25A, inhibitor 10 μM, 16 hours, immunoblot (lane 4)
Protocol: (§4) Each of the above were either untreated (lanes 1 and 2), or treated with the Cathepsin L inhibitor Z-FY(tBu)-DMK (lanes 3 and 4). F=full-length, T=truncated.
(§5) Mouse embryonic fibroblasts from Ctr1^−/− embryos were stably transfected with the human Ctr1 and the human Ctr1 containing the proline to alanine mutation at position 25 (Ctr1^P25A). Cells were cultured in medium supplemented with 20% fetal bovine serum and treated with DMSO or 10 μM cysteine protease Cathepsin L, Z-FY(t-Bu)-DMK and harvested 16 hours later. Total proteins were isolated from the cells by homogenizing cells in ice cold PBS supplemented with 1% Triton-X, 0.1% SDS, and 1 mM EDTA. Cell debris was removed by centrifugation and the total amounts of soluble proteins were quantified in each sample. Equal amounts of proteins were separated on tris/glycine gradient gel, transferred to nitrocellulose membrane and blocked with 5% non-fat milk in Tris buffered saline supplemented with 0.05% Tween (TBST) for 1 h. Membranes were incubated with anti-Ctr1 antibody (1:1000) followed by anti-rabbit-HRP coupled antibody (1:5000) and bands detected by enhanced chemiluminescent substrate. Anti-Actin antibody was used as loading control.
(§6) Inhibition of the cysteine protease Cathepsin L, Z-FY(t-Bu)-DMK (10 μM) (lanes 3 and 4) results in an increased levels of the copper and cisplatin binding full length form of Ctr1. […]

[4] = test system: human Ctr1; assay: Ctr1 ectodomain cleavage, anti-Ctr1 immunoblot of Ctr1-/- MEFs stably transfected with human Ctr1 (FIG. 5); assay type: cell-based; conditions: MEFs expressing human Ctr1, inhibitor 10 μM, 16 hours, immunoblot (lane 3)
Protocol: as §4, §5, §6

[5] = target: cathepsin B (Homo sapiens, UniProt P07858); conditions: known from literature (McGowan 1989; Barrett 1982); cited from earlier work
[6] = target: cathepsin L (Homo sapiens, UniProt P07711); conditions: known from literature (McGowan 1989; Barrett 1982); cited from earlier work
[7] = test system: calpain; conditions: known from literature (McGowan 1989; Barrett 1982); cited from earlier work
[8] = target: T1, papain (Carica papaya, UniProt P00784); conditions: known from literature (McGowan 1989; Barrett 1982); cited from earlier work
T1 sequence (P00784 134-345): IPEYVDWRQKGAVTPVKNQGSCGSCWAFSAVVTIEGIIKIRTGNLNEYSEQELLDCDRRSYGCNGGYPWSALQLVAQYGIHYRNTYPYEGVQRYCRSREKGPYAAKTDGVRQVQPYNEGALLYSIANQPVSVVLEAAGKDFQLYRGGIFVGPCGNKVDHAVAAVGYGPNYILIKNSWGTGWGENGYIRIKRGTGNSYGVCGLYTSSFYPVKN

[9] = target: T2, cathepsin H (Homo sapiens, UniProt P09668); conditions: known from literature (McGowan 1989; Barrett 1982); cited from earlier work
T2 sequence (P09668 98-335): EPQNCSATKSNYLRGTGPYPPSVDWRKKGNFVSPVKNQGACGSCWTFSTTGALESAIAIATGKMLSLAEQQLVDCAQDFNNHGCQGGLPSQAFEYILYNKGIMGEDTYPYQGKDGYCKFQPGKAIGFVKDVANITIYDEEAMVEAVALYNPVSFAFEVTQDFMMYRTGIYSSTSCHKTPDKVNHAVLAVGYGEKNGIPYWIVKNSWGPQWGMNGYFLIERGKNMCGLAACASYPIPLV

[10] = test system: Ctr1 ectodomain cleavage in wild type mouse embryonic fibroblasts; assay: Ctr1 ectodomain cleavage, anti-Ctr1 immunoblot of wild type MEFs (FIG. 4); assay type: cell-based; conditions: E64d 10 μM, harvested 16 hours later
From the text: (§7) FIG. 4 is an immunoblot of protein extracts from wild-type MEFs (lanes 1-4) and Cathepsin L^−/− MEFs (lanes 5-8) with an anti-Ctr1 antibody and an anti-tubulin antibody. Lanes 1 and 2 are duplicate samples from untreated wild type MEFs. Lanes 3 and 4 are duplicate samples from wild-type MEFs treated with the Cathepsin L inhibitor E64d. Lanes 5 and 6 are duplicate samples from untreated Cathepsin L^−/− MEFs. Lanes 7 and 8 are duplicate samples from Cathepsin L^−/− MEFs treated with the Cathepsin L inhibitor E64d.
(§8) Mouse embryonic fibroblasts from wild type and CatL^−/− littermates were cultured in medium supplemented with 10% fetal bovine serum and treated with DMSO or […] of the cell permeable cysteine protease inhibitor E64d and harvested 16 hours later. Total proteins were isolated from the cells by homogenizing cells in ice cold PBS supplemented with 1% Triton-X, 0.1% SDS, and 1 mM EDTA. Cell debris was removed by centrifugation and the total amounts of soluble proteins were quantified in each sample. Equal amounts of proteins were separated on Tris/glycine gradient gel, transferred to nitrocellulose membrane and blocked with 5% non-fat milk in Tris buffered saline supplemented with 0.05% Tween (TBST) for 1 h. Membranes were incubated with anti-Ctr1 antibody (1:1000) followed by anti-rabbit-HRP coupled antibody (1:5000) and bands detected by enhanced chemiluminescent substrate. […]

[11] = test system: Ctr1 ectodomain cleavage in Cathepsin L-/- mouse embryonic fibroblasts; assay: Ctr1 ectodomain cleavage, anti-Ctr1 immunoblot of Cathepsin L-/- MEFs (FIG. 4); assay type: cell-based
From the text: as §7, §8

Chain of cathepsin L (P07711 114-333): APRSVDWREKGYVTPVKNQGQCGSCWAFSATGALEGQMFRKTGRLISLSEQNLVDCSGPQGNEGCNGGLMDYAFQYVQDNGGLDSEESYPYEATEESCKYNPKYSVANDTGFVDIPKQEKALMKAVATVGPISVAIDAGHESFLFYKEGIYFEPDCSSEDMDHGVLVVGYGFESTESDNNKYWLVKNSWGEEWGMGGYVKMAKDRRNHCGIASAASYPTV

For CC(C)(C)Oc1ccc(CC(NC(=O)C(Cc2ccccc2)NC(=O)OCc2ccccc2)C(=O)C=[N+]=[N-])cc1 (stereo not drawn) [Z-FY(t-Bu)-DMK, benzyl (1-((1-(4-(tert-butoxy)phenyl)-4-diazo-3-oxobutan-2-yl)amino)-1-oxo-3-phenylpropan-2-yl)carbamate] (Cbz-Phe-Tyr(tBu)-CHN2; configuration not given here), the “cisplatin accumulation (platinum by ICP-MS, normalized to protein)” value [1] was “enhanced”, the “cisplatin accumulation (platinum by ICP-MS, normalized to protein)” value [2] was “enhanced” and the “levels of the copper and cisplatin binding full length form of Ctr1” value [3] was “increased”. The “levels of the copper and cisplatin binding full length form of Ctr1” value [4] was “increased”.

In the case of CC(C)C[C@H](NC(=O)[C@H]1O[C@@H]1C(=O)O)C(=O)NCCCCN=C(N)N (relative stereo) [E-64, trans-Epoxysuccinyl-L-leucylamido(4-guanidino)butane], the “inhibition of cathepsin B” value [5] is given as “inhibit”, the “inhibition of cathepsin L” value [6] is given as “inhibit” and the inhibition of calpain [7] is given as “inhibit”. The inhibition of papain [8] was “inhibit” and the “inhibition of cathepsin H” value [9] was “inhibit”.

With CCOC(=O)[C@H]1O[C@@H]1C(=O)N[C@@H](CC(C)C)C(=O)NCCC(C)C (relative stereo) [E64d, (2S,3S)-trans-Epoxysuccinyl-L-leucylamido-3-methylbutane ethyl ester] the “levels of cleaved Ctr1” value [10] was “dramatic reduction”, the “levels of cleaved Ctr1” value ([11]; Cathepsin L knock out MEFs, E64d 10 μM, 16 hours) was “not” and the “full-length Ctr1” value ([11]; Cathepsin L-/- MEFs treated with E64d vs not treated) was “increase”.
